Literature values in patent publication US20250255804A1, “LIQUID INJECTABLE COMPOSITIONS OF LURBINECTEDIN” (DR. REDDY’S LABORATORIES LIMITED, priority 2024, published 2025).

Conditions: solubility increases at acidic pH

**Q.** With `COc1ccc2[nH]c3c(c2c1)CCN[C@]31CS[C@@H]2c3c(OC(C)=O)c(C)c4c(c3[C@H](COC1=O)N1[C@@H]2[C@H]2c3c(cc(C)c(OC)c3O)C[C@@H]([C@@H]1O)N2C)OCO4` [lurbinectedin, Lurbinectedin] as the compound, how does the solubility in water read?
**A.** insoluble or practically insoluble in water
